ChEMBL document CHEMBL4007467, “Effects of 6-paradol, an unsaturated ketone from gingers, on cytochrome P450-mediated drug metabolism” (Bioorg Med Chem Lett, 2017)

Columns and labels:
Assay type in all cases: ADME
CYP2B6 = molecular target: T1, CYP2B6 (Homo sapiens, UniProt P20813); test: Inhibition of CYP2B6 in human liver microsomes assessed as enzyme-mediated metabolite formation at 3 uM using bupropion as substrate incubated for 5 mins followed by NADPH addition measured after 30 mins by LC-MS/MS analysis relative to control; parameters: scale not given: the % may be the effect or the level left; conditions: probe bupropion, read-out: Activity
T1 sequence (P20813 whole entry): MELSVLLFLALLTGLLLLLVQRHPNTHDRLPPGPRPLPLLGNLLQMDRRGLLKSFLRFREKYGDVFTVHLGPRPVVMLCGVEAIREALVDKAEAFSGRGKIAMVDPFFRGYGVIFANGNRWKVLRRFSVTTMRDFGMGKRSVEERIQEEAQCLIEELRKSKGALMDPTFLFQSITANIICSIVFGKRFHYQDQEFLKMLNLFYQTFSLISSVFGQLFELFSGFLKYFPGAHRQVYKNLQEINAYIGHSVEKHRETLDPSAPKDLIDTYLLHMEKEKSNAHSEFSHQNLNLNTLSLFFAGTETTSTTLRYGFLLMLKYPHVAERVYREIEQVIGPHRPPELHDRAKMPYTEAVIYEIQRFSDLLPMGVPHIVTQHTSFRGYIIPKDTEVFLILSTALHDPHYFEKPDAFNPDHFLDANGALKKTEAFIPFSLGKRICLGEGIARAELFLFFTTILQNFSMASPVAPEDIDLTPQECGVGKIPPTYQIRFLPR

CYP2C19 = CYP2C19 (Homo sapiens, UniProt P33261); test: Inhibition of CYP2C19 in human liver microsomes assessed as enzyme-mediated metabolite formation at 3 uM using (S)-mephenytoin as substrate incubated for 5 mins followed by NADPH addition measured after 30 mins by LC-MS/MS analysis relative to control; parameters: scale not given: the % may be the effect or the level left; conditions: probe (S)-mephenytoin, read-out: Activity
CYP3A4 [1] = molecular target: T2, CYP3A4 (Homo sapiens, UniProt P08684); test: Inhibition of CYP3A4 in human liver microsomes assessed as enzyme-mediated metabolite formation at 0.1 uM using midazolam as substrate incubated for 5 mins followed by NADPH addition measured after 30 mins by LC-MS/MS analysis relative to control; parameters: scale not given: the % may be the effect or the level left; conditions: probe midazolam, read-out: Activity
CYP3A4 [2] = molecular target: T2, CYP3A4; test: Inhibition of CYP3A4 in human liver microsomes assessed as enzyme-mediated metabolite formation at 0.3 uM using testosterone as substrate incubated for 5 mins followed by NADPH addition measured after 30 mins by LC-MS/MS analysis relative to control; parameters: scale not given: the % may be the effect or the level left; conditions: probe testosterone, read-out: Activity
CYP2A6 = molecular target: T3, CYP2A6 (Homo sapiens, UniProt P11509); test: Inhibition of CYP2A6 in human liver microsomes assessed as enzyme-mediated metabolite formation at 30 uM using coumarin as substrate preincubated for 20 mins followed by substrate addition measured after 30 mins in presence of NADPH by LC-MS/MS analysis relative to control; parameters: scale not given: the % may be the effect or the level left; conditions: probe coumarin, read-out: Activity
T3 sequence (P11509 whole entry): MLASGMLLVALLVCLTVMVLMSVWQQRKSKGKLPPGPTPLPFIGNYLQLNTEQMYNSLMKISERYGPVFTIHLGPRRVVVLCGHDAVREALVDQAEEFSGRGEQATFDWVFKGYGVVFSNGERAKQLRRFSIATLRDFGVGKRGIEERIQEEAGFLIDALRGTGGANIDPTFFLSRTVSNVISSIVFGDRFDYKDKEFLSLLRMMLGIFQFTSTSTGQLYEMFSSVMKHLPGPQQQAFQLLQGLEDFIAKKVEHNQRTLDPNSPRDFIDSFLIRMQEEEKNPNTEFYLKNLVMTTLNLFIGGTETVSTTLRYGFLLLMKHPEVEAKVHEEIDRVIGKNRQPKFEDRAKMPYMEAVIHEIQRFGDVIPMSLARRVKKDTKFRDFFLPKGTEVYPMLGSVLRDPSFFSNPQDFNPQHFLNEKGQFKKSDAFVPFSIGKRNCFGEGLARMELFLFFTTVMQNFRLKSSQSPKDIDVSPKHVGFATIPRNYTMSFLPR

Cytochrome P450 2C8 = molecular target: T4, Cytochrome P450 2C8 (Homo sapiens, UniProt P10632); test: Inhibition of CYP2C8 in human liver microsomes using paclitaxel as substrate preincubated for 20 mins followed by substrate addition measured after 30 mins in presence of NADPH by LC-MS/MS analysis
T4 sequence (P10632 whole entry): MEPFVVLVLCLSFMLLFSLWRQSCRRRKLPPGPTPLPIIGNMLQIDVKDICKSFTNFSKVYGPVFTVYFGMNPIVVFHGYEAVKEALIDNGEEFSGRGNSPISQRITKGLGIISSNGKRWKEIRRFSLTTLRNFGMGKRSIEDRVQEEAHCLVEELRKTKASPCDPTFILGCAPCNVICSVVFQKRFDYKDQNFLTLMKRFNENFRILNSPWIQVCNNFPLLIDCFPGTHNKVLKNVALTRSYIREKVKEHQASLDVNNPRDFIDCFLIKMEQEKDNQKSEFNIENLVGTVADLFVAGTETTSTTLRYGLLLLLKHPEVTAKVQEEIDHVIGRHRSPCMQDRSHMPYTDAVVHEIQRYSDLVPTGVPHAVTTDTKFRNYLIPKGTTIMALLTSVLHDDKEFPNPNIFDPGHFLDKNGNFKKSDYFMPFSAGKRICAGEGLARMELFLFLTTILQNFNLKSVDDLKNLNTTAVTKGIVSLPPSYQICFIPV

CYP2C9 = CYP2C9 (Homo sapiens, UniProt P11712); test: Inhibition of CYP2C9 in human liver microsomes assessed as enzyme-mediated metabolite formation at 3 uM using diclofenac as substrate preincubated for 20 mins followed by substrate addition measured after 30 mins in presence of NADPH by LC-MS/MS analysis relative to control; parameters: scale not given: the % may be the effect or the level left; conditions: probe diclofenac, read-out: Activity
CYP3A4 [3] = molecular target: T2, CYP3A4; test: Inhibition of CYP3A4 in human liver microsomes assessed as enzyme-mediated metabolite formation at 0.3 uM using testosterone as substrate preincubated for 20 mins followed by substrate addition measured after 30 mins in presence of NADPH by LC-MS/MS analysis relative to control; parameters: scale not given: the % may be the effect or the level left; conditions: probe testosterone, read-out: Activity

T2 sequence (P08684 whole entry): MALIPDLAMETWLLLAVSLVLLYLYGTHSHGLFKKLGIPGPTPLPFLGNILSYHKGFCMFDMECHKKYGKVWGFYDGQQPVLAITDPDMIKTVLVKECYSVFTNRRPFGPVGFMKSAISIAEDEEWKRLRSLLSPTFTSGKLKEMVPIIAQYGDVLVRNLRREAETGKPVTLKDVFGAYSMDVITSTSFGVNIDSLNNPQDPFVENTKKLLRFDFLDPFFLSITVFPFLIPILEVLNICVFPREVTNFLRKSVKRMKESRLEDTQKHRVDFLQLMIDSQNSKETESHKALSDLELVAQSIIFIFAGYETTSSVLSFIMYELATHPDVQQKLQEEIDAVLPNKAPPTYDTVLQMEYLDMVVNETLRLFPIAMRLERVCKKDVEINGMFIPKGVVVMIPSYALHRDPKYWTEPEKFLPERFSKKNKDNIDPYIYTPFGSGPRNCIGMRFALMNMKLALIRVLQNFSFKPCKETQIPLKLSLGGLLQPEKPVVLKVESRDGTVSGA
CYP2C9, sequence (P11712 whole entry): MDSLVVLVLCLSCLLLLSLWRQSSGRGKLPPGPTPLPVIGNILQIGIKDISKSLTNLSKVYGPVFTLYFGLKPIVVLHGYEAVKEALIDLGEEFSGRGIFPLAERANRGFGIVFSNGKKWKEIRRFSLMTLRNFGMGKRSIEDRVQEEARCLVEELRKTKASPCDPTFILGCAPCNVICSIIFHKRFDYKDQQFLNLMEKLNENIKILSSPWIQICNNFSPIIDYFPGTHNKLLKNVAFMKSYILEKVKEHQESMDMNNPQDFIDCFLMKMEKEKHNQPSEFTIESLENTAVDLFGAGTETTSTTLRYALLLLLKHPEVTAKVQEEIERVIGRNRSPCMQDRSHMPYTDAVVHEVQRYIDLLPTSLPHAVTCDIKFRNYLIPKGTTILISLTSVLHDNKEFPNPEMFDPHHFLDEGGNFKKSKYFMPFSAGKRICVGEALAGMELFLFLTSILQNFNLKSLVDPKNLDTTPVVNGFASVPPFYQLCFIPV
CYP2C19, sequence (P33261 whole entry): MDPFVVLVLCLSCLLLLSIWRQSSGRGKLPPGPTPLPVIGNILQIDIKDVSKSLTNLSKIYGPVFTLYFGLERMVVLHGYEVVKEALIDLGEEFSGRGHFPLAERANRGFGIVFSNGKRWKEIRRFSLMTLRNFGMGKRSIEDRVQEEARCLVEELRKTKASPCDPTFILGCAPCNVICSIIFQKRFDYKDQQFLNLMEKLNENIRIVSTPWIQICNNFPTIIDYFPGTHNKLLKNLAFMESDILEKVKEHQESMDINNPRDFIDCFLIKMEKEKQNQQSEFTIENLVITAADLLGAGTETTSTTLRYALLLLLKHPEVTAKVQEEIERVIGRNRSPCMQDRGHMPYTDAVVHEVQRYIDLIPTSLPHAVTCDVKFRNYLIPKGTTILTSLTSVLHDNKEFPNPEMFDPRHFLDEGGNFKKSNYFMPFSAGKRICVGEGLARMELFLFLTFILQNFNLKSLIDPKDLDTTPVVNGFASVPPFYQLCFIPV

Compound `CCCCCCCC(=O)CCc1ccc(O)c(OC)c1` has an activity at 0.5 h, 3 µM (CYP2B6) of 65.7%, an activity at 0.5 h, 3 µM (CYP2C19) of 78.6% and an activity at 0.5 h, 0.1 µM (CYP3A4 [1]) of 109%. It also gave an activity at 0.5 h, 0.3 µM (CYP3A4 [2]) of 75.2%, an activity at 0.5 h, 30 µM (CYP2A6) of 79.9% and an IC50 (Cytochrome P450 2C8) of 8.3 µM. It also gave an activity at 0.5 h, 3 µM (CYP2C9) of 78.8% and an activity at 0.5 h, 0.3 µM (CYP3A4 [3]) of 87.4%.
